In data set [1] the test system is SARS-CoV-2. The experiment in a line: microbe, parasite or virus in culture. Type of data set: cell-based. Conditions: for Viral titers at a single subtoxic concentration: MOI = 0.1, 24 h postinfection, vs DMSO; for Selectivity index: from CC50 and cellular IC50 in Vero CCL-81 cells.
Data set [2] deals with T1, SARS-CoV-2 Nsp15 (Severe acute respiratory syndrome coronavirus 2, UniProt P0DTD1). The experiment in a line: Nsp15 FRET-based activity assay. Type of data set: biochemical. Conditions: for Nsp15 inhibition with 5′FAM and 5′Cy5 substrates and quenching: compounds at 25 μM and 50 μM.
Data set [3] concerns the target T1, SARS-CoV-2 Nsp15. The experiment in a line: Nsp15 native RNA cleavage assay (denaturing PAGE, SYBR Gold). Type of data set: biochemical.
Data set [4] addresses T1, SARS-CoV-2 Nsp15. The experiment in a line: FRET assay with nonionic detergent (colloidal aggregate test). Conditions: 0.01% Triton-X or CHAPS. Type of data set: biochemical.
Data set [5] deals with T1, SARS-CoV-2 Nsp15. The experiment in a line: biochemical. Type of data set: biochemical.
Data set [6] concerns the target T1, SARS-CoV-2 Nsp15. The experiment in a line: Reversibility: reaction progress after dilution of preincubated enzyme-inhibitor complex. Type of data set: biochemical. The settings on record: 60 min preincubation, 1:50 dilution.
Data set [7] deals with MERS Nsp15 (Middle East respiratory syndrome-related coronavirus, UniProt K9N7C7). Type of data set: biochemical.
Sequence of MERS Nsp15 (K9N7C7 6433-6775 limits assumed): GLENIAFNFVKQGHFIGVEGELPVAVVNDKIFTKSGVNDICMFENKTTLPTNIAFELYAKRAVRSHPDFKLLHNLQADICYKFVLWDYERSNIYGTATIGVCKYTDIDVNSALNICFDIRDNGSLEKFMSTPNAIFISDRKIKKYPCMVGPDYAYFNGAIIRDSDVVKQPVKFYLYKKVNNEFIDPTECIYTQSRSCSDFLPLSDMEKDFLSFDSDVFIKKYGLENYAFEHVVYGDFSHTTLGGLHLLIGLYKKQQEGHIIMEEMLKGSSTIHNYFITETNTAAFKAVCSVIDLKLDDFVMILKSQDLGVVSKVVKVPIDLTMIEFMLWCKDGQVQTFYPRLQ
The nature of data set [8]: Cell cytotoxicity assay (CellTiter-Glo). Conditions: African green monkey, CC50, 24 h. On the technique in general: In ATP-based viability assays light output follows the ATP content of the culture.
Data set [9] deals with T1, SARS-CoV-2 Nsp15. The experiment in a line: Effect of DTT on compound inhibition of Nsp15. Type of data set: biochemical. Conditions: 10 mM vs 1 mM DTT.
In data set [10] the target is T1, SARS-CoV-2 Nsp15. The experiment in a line: MALDI-TOF mass spectrometry of Nsp15 preincubated with compound. Conditions: preincubation with fivefold molar excess of compound.
The target of data set [11] is SARS-CoV-1 Nsp15 (Severe acute respiratory syndrome coronavirus, UniProt P0C6X7). It counts as biochemical.
Data set [12] can be described thus: in vitro. The settings on record: African green monkey.
Data set [13] addresses T1, SARS-CoV-2 Nsp15.
The test system of data set [14] is Calu-3 cells. Details: method as in PMID 33886614. Conditions: cited from earlier work.
The mark [15] stands for this setting: IC50, Nsp15 activity, FRET assay, Nsp15 1 ng/μl, ~12 min at 37 °C.
The mark [16] stands for this setting: 31-nt single rU RNA, 1 h at 37 °C.
Where [17] appears, read: RNA substrate titration 0 to 10 µM.
The mark [18] stands for this setting: extra sum-of-squares F test, highest inhibitor dose.
[19] abbreviates: Severe acute respiratory syndrome coronavirus 2, 24 h, read-out: IC50, viral inhibition, Vero CCL-81 cells, MOI = 0.1, 24 h infection.
Setting [20] is: read-out: IC50, viral inhibition, Vero CCL-81 cells, MOI = 0.1, 24 h infection.

Several values for one entry are separate records, joined by “and”; a condition that tells them apart may be missing. Equal entries are not always repeated. Entries after “also recorded” stand apart in the source; their conditions may differ. Where two headings read alike, the source gives them in different places.

One may read the IC50 as the midpoint of a concentration-inhibition curve. Usually Ki stands for the equilibrium dissociation constant of an inhibitor or competing ligand from its target. Usually Vmax stands for the top rate of the reaction or transport when substrate is in excess. By Km is commonly meant the concentration of substrate that gives half-maximal velocity. As a reminder, the EC50 is the concentration giving half of the maximal effect.

On to `CCC(CC)COC(=O)[C@H](C)N[P@](=O)(OC[C@H]1O[C@@](C#N)(c2ccc3c(N)ncnn23)[C@H](O)[C@@H]1O)Oc1ccccc1` [remdesivir], for which the “Viral titers at a single subtoxic concentration” value (from here on “Viral titers”) in [1] (Vero CCL-81 cells) was “significantly reduced viral titers”.
Take `O=C(N/N=C/c1ccccc1O)c1ccc(O)c(O)c1` [CID5266986]: the IC50 in data set [2] (setting [15]) is ~78 µM and 78 µM. For the same molecule, the “Nsp15 inhibition with 5′FAM and 5′Cy5 substrates and quenching” value (shortened to “Nsp15 inhibition”) in data set [2] is listed as “inhibited Nsp15 using either substrate, without appreciable quenching”. Moreover, in data set [3] (setting [16]), the “Inhibition of native RNA substrate cleavage” value is recorded as “dose-dependent effects”. Also, the “Change of Nsp15 activity with inhibitor when detergent is present” value (from here on “Change of Nsp15 activity with inhibitor”) in data set [4] is “increase in Nsp15 activity”. In data set [5], this molecule yielded a Ki of 64.9 ± 16.9 µM. Moreover, the “Kinetic mechanism / predicted type of inhibition” value in data set [5] (setting [17]) is given as “mixed mechanisms of inhibition”. Further, in data set [5] (setting [18]), the “Km diff. vs DMSO” value was “Yes” and the “Vmax diff. vs DMSO” value is “Yes”. In addition, the “Vmax (best-fit)” value in data set [5] (inhibitor 125µM) came to 0.22 µM/min. Besides, the “Vmax (best-fit)” value in data set [5] (inhibitor 175µM) is recorded as 0.21 µM/min. Further, the Reversibility of inhibition result in data set [6] is given as “Nsp15 activity was restored”. Also, the “Viral titers” value in [1] (Vero CCL-81 cells) is on record as “not statistically different from the control”. Moreover, in data set [7], the “Inhibition of MERS Nsp15” value is on record as “only modest effects”. Moreover, in [8] (Fig. S15), the CC50 at 24 h was 15 to 42 µM.
`Oc1ccc2ccccc2c1SSc1c(O)ccc2ccccc12` [IPA-3, reference compound]: the IC50 in data set [2] (FRET assay, Nsp15 1 ng/μl, ~12 min at 37 °C, read-out: IC50, Nsp15 activity) was ~7 µM and 6.8 µM; in [1] (Severe acute respiratory syndrome coronavirus 2, 24 h, Vero CCL-81 cells, MOI = 0.1, 24 h infection, read-out: IC50, viral inhibition) it was 8.5 ± 1.1 µM; in data set [1] (Vero CCL-81 cells, MOI = 0.1, 24 h infection, read-out: IC50, viral inhibition), 10 µM. Moreover, the “Nsp15 inhibition” value in data set [2] is on record as “inhibited Nsp15 using either substrate, without appreciable quenching”. In addition, the “Inhibition of native RNA substrate cleavage” value in data set [3] (setting [16]) is listed as “dose-dependent effects”. In data set [4], the “Change of Nsp15 activity with inhibitor” value is “increase in Nsp15 activity”. Further, in [5] (setting [17]), the “Kinetic mechanism / predicted type of inhibition” value is listed as “noncompetitive”. Further, the “Km diff. vs DMSO” value in [5] (setting [18]) is on record as “No”. Further, the “Vmax diff. vs DMSO” value in [5] (setting [18]) was “Yes”. Besides, the Ki in data set [5] (fit to Michaelis-Menten inhibition models, read-out: Computed Ki ± SE) stood at 10.8 ± 0.87 µM. The “Vmax (best-fit)” value in [5] (inhibitor 5µM) is 0.23 µM/min; in [5] (inhibitor 20µM) it was 0.11 µM/min. Also, the Reversibility of inhibition entry in data set [6] is “irreversible”. For the same molecule, the “Effect of excess DTT on inhibition” value in data set [9] is on record as “excess DTT nearly completely reversed inhibition”. In data set [10], the “Peak shift of Nsp15 versus apoprotein” value was around 333 Da. Moreover, the “Viral titers” value in data set [1] (Vero CCL-81 cells) is on record as “significantly reduced viral titers”. Also, the Selectivity index in data set [1] is around 5. In addition, the “Inhibition of SARS-CoV-1 Nsp15” value in [11] is reported as “equal potency”. The “Inhibition of MERS Nsp15” value in data set [7] is given as “only modest effects; also recorded: reduced effect”. The CC50 at 24 h in data set [12] was 43 ± 4.8 µM.
In the case of `CC1(C)CCC2=C(O1)c1ccccc1C(=O)C2=O` [β-lapachone, reference compound], the “Nsp15 inhibition” value in data set [2] was “inhibited Nsp15 using either substrate, without appreciable quenching”.
On to `Oc1c(Cl)cc(Cl)c(Cl)c1Cc1c(O)c(Cl)cc(Cl)c1Cl` [hexachlorophene, reference compound], for which the IC50 in [2] (IC50, Nsp15 activity) is ~1 µM and 1.6 µM and 1 to 2 µM; in data set [1] (setting [19]) it was 0.91 ± 0.044 µM; in data set [1] (setting [20]) it was around 1 µM. For the same molecule, the “Nsp15 inhibition” value in [2] was “inhibited Nsp15 using either substrate, without appreciable quenching”. The “Inhibition of native RNA substrate cleavage” value in [3] was “dose-dependent effects”. Further, the “Change of Nsp15 activity with inhibitor” value in data set [4] was “increase in Nsp15 activity”. This molecule gave a Ki in data set [5] of 1.23 ± 0.3 µM. Also, the “Kinetic mechanism / predicted type of inhibition” value was “mixed mechanisms of inhibition” in [5] and “Mixed” in data set [5] (listed as Hexachlorophene). Further, the “Km diff. vs DMSO” value in [5] was “Yes”. Besides, in data set [5] (setting [18]), the “Vmax diff. vs DMSO” value is “Yes”. The “Vmax (best-fit)” value in [5] (inhibitor 3µM) is 0.24 µM/min; in data set [5] (inhibitor 6µM) it was 0.19 µM/min. Moreover, in data set [6], the Reversibility of inhibition result is reported as “Nsp15 activity was restored”. For the same molecule, the “Viral titers” value in [1] (Vero CCL-81 cells) is listed as “significantly reduced viral titers”. In addition, the “Inhibition of SARS-CoV-1 Nsp15” value in [11] is reported as “less potent”.
For 5′-FAM-CAACUAAACGAAC-BHQ1-3′ [RNA2], the Vmax in data set [13] was around 0.3 µM/min. The Km in data set [13] (read-out: Km of substrate) was around 3 µM.
With Exebryl-1, the EC50 in data set [14] was around 65 µM.
`Nc1c(S(=O)(=O)O)cc(Nc2ccc(Nc3nc(Cl)nc(Nc4cccc(S(=O)(=O)O)c4)n3)c(S(=O)(=O)O)c2)c2c1C(=O)c1ccccc1C2=O` [Reactive Blue 2, reference compound]: the “Nsp15 inhibition” value in [2] is reported as “inhibited Nsp15 using either substrate, without appreciable quenching”. Moreover, the “Inhibition of native RNA substrate cleavage” value in data set [3] (setting [16]) is reported as “produced a fluorescent artifact”.
As to `O=C1/C(=C/c2cc([N+](=O)[O-])cc(Br)c2O)SC(=S)N1Cc1ccccc1` [CID5675221], the IC50 was ~20 µM and 20.7 µM in data set [2] (setting [15]); 19 ± 3.9 µM in data set [1] (setting [19]); ~20 µM and < 20 µM in data set [1] (setting [20]). Also, the “Nsp15 inhibition” value in data set [2] is given as “inhibited Nsp15 using either substrate, without appreciable quenching”. In [3] (setting [16]), the “Inhibition of native RNA substrate cleavage” value is on record as “dose-dependent effects”. For the same molecule, the “Change of Nsp15 activity with inhibitor” value in data set [4] is recorded as “increase in Nsp15 activity”. Moreover, in data set [5], the Ki came to 6.71 ± 2.31 µM. For the same molecule, the “Kinetic mechanism / predicted type of inhibition” value in data set [5] (setting [17]) was “mixed mechanisms of inhibition”. Moreover, in [5] (setting [18]), the “Km diff. vs DMSO” value is given as “Yes”. The “Vmax diff. vs DMSO” value in data set [5] (setting [18]) is on record as “Yes”. Also, the “Vmax (best-fit)” value is 0.21 µM/min in data set [5] (inhibitor 15µM) and 0.17 µM/min in [5] (inhibitor 30µM). Moreover, in [6], the Reversibility of inhibition result was “Nsp15 activity was restored”. Besides, the “Viral titers” value in data set [1] (Vero CCL-81 cells) is on record as “significantly reduced viral titers”. The Selectivity index in [1] was around 15. For the same molecule, the CC50 at 24 h was above 240 µM in data set [8] (Fig. S15) and 290 ± 28 µM in data set [8] (measured in parallel with viral inhibition, Fig. 6).
Consider `CC(=O)Nc1ccc(NS(=O)(=O)c2ccc3c(c2)C(=O)c2ccccc2C3=O)cc1` [CID5220994], for which the IC50 in data set [2] (setting [15]) was ~50 µM and 50.9 µM. The “Nsp15 inhibition” value in [2] was “inhibited Nsp15 using either substrate, without appreciable quenching”. Moreover, the “Inhibition of native RNA substrate cleavage” value in [3] (setting [16]) is recorded as “dose-dependent effects”. Besides, the “Change of Nsp15 activity with inhibitor” value in [4] is “higher increase in activity”. For the same molecule, in data set [5], the affinity corresponds to a Ki of 72.9 ± 11.6 µM. Besides, the “Kinetic mechanism / predicted type of inhibition” value in [5] (setting [17]) was “competitive with substrate”. Moreover, in [5] (setting [18]), the “Km diff. vs DMSO” value is on record as “Yes” and the “Vmax diff. vs DMSO” value was “No”. Moreover, the “Vmax (best-fit)” value in data set [5] (inhibitor 50µM) is 0.31 µM/min. The “Vmax (best-fit)” value in [5] (inhibitor 100µM) is listed as 0.28 µM/min. Besides, the Reversibility of inhibition result in data set [6] is given as “Nsp15 activity was restored”. For the same molecule, the “Viral titers” value in [1] (Vero CCL-81 cells) is recorded as “not statistically different from the control”. Also, the “Inhibition of MERS Nsp15” value in [7] is reported as “only modest effects”. The CC50 at 24 h in data set [8] (Fig. S15) fell in the range of 15 to 42 µM.

Values taken from PMC10656235, “Reversible and irreversible inhibitors of coronavirus Nsp15 endoribonuclease” (The Journal of Biological Chemistry, 2023).
